Columns and labels:
A549 = assay: MTT cell viability assay, A549; type: cell-based; details: Homo sapiens, 24 h incubation, mean ± SD, n = 4
Method: (§1) The synthesized compounds were subjected to a cytotoxicity assay using the MTT method, as described previously. IC50 is defined as the drug concentration causing a 50% reduction in cell numbers compared to the untreated control. For screening, we evaluated the effects of the compounds on the growth of three cancer cell lines (A549, SGC-7901, and HeLa). In addition, their toxicities were tested using one normal cell line (L-02). The results are the averages of four separate measurements. MTX and 5-FU served as positive controls.
(§2) The three cancer cell lines namely the human lung cancer cell line (A549), human cervical cancer cell line (HeLa), human gastric carcinoma cell line (SGC-7901), and normal liver cell line (L-02) were acquired from the American Type Culture Collection (Manassas, VA, USA). A549 and SGC-7901 cells were routinely cultured in RPMI-1640. In addition, HeLa and L-02 cells were routinely cultured in DMEM. Media was supplemented with 10% fetal bovine serum (FBS). Cells were maintained at subconfluency at 37 °C in humidified air containing 5% CO2. The cells were monitored daily and maintained at 80% cell density. All compounds tested were dissolved in DMSO and then diluted by the culture medium before the treatment of cultured cells.
(§3) Cytotoxicity of the tested samples was measured against each cell line using the 3-(4,5-dimethylthiazol-2-yl)-2,5-diphenyltetrazolium bromide (MTT) cell viability assay (Maher et al., 2019). Cancer cells (A549, SGC-7901, and HeLa) and L-02 normal cells were harvested during the logarithmic growth phase. All cells were seeded in 96-well plates at 10^4 cells/well and were treated with 5-fluorouracil (5-FU), methotrexate (MTX), and the tested samples for 24 h at final concentrations of […]. Next, 20 µL of freshly prepared MTT (Solarbio) solution (5 mg/mL of MTT in PBS) was added to each well, and the cells were cultured for 4 h at 37 °C. The supernatants were removed and resolved with 100 µL of DMSO, and the cells were shocked for 10 min at 37 °C. The optical density of the samples was measured at 490 nm using a microplate luminometer. Cell viability was expressed as the percentage change in absorbance compared to the control values.

SGC-7901 = assay: MTT cell viability assay, SGC-7901; type: cell-based; details: Homo sapiens, 24 h incubation, mean ± SD, n = 4
Method: as §1, §2, §3

HeLa = assay: MTT cell viability assay, HeLa; type: cell-based; details: Homo sapiens, 24 h incubation, mean ± SD, n = 4
Method: as §1, §2, §3

L-02 = assay: MTT cytotoxicity in normal cell line L-02; type: cell-based; details: for IC50: Homo sapiens, L02, normal cell line L-02, MTT; for Selectivity Index A549: IC50 in normal cells (L-02)/IC50 in tumor cells (A549); for Selectivity Index HeLa: IC50 in normal cells (L-02)/IC50 in tumor cells (HeLa); for Selectivity Index SGC-7901: IC50 in normal cells (L-02)/IC50 in tumor cells (SGC-7901)
Method: as §1
The lack of selectivity between normal and cancer cells is one of the primary limitations of antitumor drugs. We evaluated the cytotoxicity of compounds 4c, 4e–4i, 4l, 4m, and 4q in the normal cell line L-02 to determine the selectivity index (defined as the ratio of cytotoxicity in L-02 cells compared to that in cancer cells). […] Compound 4q yielded satisfactory SI values in HeLa and SGC-7901 cells but an unsatisfactory SI value in A549 cells. […] Compound 4f was selected for the subsequent biological studies.
as §2, §3

Row | SMILES | IC50 (A549) | IC50 (SGC-7901) | IC50 (HeLa) | melting point | IC50 (L-02) | Selectivity Index A549 (L-02) | Selectivity Index HeLa (L-02) | Selectivity Index SGC-7901 (L-02)
1 | CCc1nccn1-c1ccc(NC(=O)CCC(=O)Nc2ccc(N)cc2)cc1 [Compound 4j, 1-(4-(3-(4-amino-Phenylcarbamoyl)propionamide)phenyl)-2-ethylimidazole] | > 100 µM | > 100 µM | 7.42 ± 0.67 µM | 229 to 231 °C | – | – | – | –
2 | CCc1nccn1-c1ccc(NC(=O)CCC(=O)NCc2ccc(Cl)cc2)cc1 [Compound 4l, 1-(4-(3-(4-Cl-Benzylcarbamoyl)propionamide)phenyl)-2-ethyl Imidazol] | 11 ± 1.31 µM | 8.39 ± 1.11 µM | 7.04 ± 1.07 µM | 138 to 142 °C | 114 ± 16.7 µM | 10.36 | 16.13 | 13.53
3 | CCc1nccn1-c1ccc(NC(=O)CCC(=O)Nc2ccc(C)cc2)cc1 [Compound 4h] | 32.2 ± 4.79 µM | 13.1 ± 3.02 µM | 6.31 ± 0.79 µM | 200 to 202 °C | 290 ± 26.6 µM | 9.00 | 45.94 | 22.10
4 | CCc1nccn1-c1ccc(NC(=O)CCC(=O)Nc2nccs2)cc1 [Compound 4s, 1-(4-(3-(Thiazolcarbamoyl)propionamide)phenyl)-2-ethyl Imidazole] | 24 ± 3.47 µM | 56.3 ± 3.24 µM | 14.8 ± 2.05 µM | 168 to 170 °C | – | – | – | –
5 | CCc1nccn1-c1ccc(NC(=O)CCC(=O)NCc2ccc(OC)cc2)cc1 [Compound 4p, 1-(4-(3-(4-Methoxybenzylcarbamoyl)propanamide)phenyl)-2-ethylimidazole] | 75.9 ± 4 µM | 40.3 ± 4.67 µM | 25.5 ± 4.94 µM | 168 to 171 °C | – | – | – | –
6 | CCc1nccn1-c1ccc(NC(=O)CCC(=O)Nc2ccc(Cl)cc2)cc1 [Compound 4e, 1-(4-(3-(4-Cl-Phenylcarbamoyl)propionamide)phenyl)-2-ethyl Imidazol] | 43.4 ± 5.42 µM | 10.6 ± 1.75 µM | 13.3 ± 1.37 µM | 184 to 188 °C | 313 ± 18 µM | 7.22 | 23.58 | 29.48
7 | CCc1nccn1-c1ccc(NC(=O)CCC(=O)O)cc1 [Compound 3, 3-(4-(2-Ethyl-1H-imidazol-1-yl)phenylcarbamoyl)propanoic Acid] | > 100 µM | > 100 µM | > 100 µM | 163 to 165 °C | – | – | – | –
8 | CCc1nccn1-c1ccc(NC(=O)CCC(=O)NCc2ccc(Br)cc2)cc1 [Compound 4m, 1-(4-(3-(4-Br-Benzylcarbamoyl)propionamide)phenyl)-2-ethylimidazole] | 28.6 ± 2.51 µM | 15.2 ± 1.74 µM | 4.07 ± 0.59 µM | 143 to 145 °C | 210 ± 20.3 µM | 7.35 | 51.59 | 13.85
9 | CCc1nccn1-c1ccc(NC(=O)CCC(=O)NCc2ccccc2Cl)cc1 [Compound 4q] | 31.1 ± 3.81 µM | 2.96 ± 0.29 µM | 4.91 ± 0.71 µM | 116 to 120 °C | > 500 µM | – | – | >168.92
10 | CCc1nccn1-c1ccc(NC(=O)CCC(=O)Nc2ccccc2)cc1 [Compound 4d, 1-(4-(3-(Phenylcarbamoyl)propionamide)phenyl)-2-ethylimidazole] | 86.5 ± 10.6 µM | > 100 µM | > 100 µM | 170 to 173 °C | – | – | – | –
11 | CCCCCNC(=O)CCC(=O)Nc1ccc(-n2ccnc2CC)cc1 [Compound 4c, 1-(4-(3-(Amylcarbamoyl)propionamide)phenyl)-2-ethyl Imidazole] | 33.9 ± 2.43 µM | 18.5 ± 2.12 µM | 28.5 ± 2.51 µM | 95 to 98 °C | 114 ± 8.35 µM | 3.35 | 3.99 | 6.13
12 | CCc1nccn1-c1ccc(NC(=O)CCC(=O)NCc2ccccc2)cc1 [Compound 4k, 1-(4-(3-(Benzylcarbamoyl)propionamide)phenyl)-2-ethyl Imidazol] | > 100 µM | 20.6 ± 2 µM | 15.2 ± 1.4 µM | 123 to 126 °C | – | – | – | –
13 | CCCNC(=O)CCC(=O)Nc1ccc(-n2ccnc2CC)cc1 [Compound 4a, 1-(4-(3-(Propylcarbamoyl)propionamide)phenyl)-2-ethyl Imidazole] | > 100 µM | > 100 µM | > 100 µM | 128 to 130 °C | – | – | – | –
14 | CCc1nccn1-c1ccc(NC(=O)CCC(=O)Nc2ccc(F)cc2)cc1 [Compound 4g, 1-(4-(3-(4-F-Phenylcarbamoyl)propionamide)phenyl)-2-ethyl Imidazol] | 13.8 ± 1.92 µM | 14 ± 2.29 µM | 16.5 ± 1.48 µM | 75 to 78 °C | 42.6 ± 6.37 µM | 3.10 | 2.58 | 3.04
15 | CCc1nccn1-c1ccc(NC(=O)CCC(=O)NCc2ccc(C)cc2)cc1 [Compound 4o, 1-(4-(3-(4-Methylbenzylcarbamoyl)propionamide)phenyl)-2-ethylimidazole] | 71.3 ± 9.13 µM | 11.6 ± 1.59 µM | 12.5 ± 0.91 µM | 164 to 166 °C | – | – | – | –
16 | CCc1nccn1-c1ccc(NC(=O)CCC(=O)NCc2ccccn2)cc1 [Compound 4r, 1-(4-(3-(Pyridinemethylcarbamoyl)propionamide)phenyl)-2-ethyl Imidazole] | > 100 µM | 41.9 ± 3.47 µM | > 100 µM | 118 to 121 °C | – | – | – | –
17 | CCCCNC(=O)CCC(=O)Nc1ccc(-n2ccnc2CC)cc1 [Compound 4b, 1-(4-(3-(Butylcarbamoyl)propionamide)phenyl)-2-ethyl Imidazol] | > 100 µM | 52.5 ± 3.36 µM | > 100 µM | 112 to 115 °C | – | – | – | –
18 | CN(Cc1cnc2nc(N)nc(N)c2n1)c1ccc(C(=O)N[C@@H](CCC(=O)O)C(=O)O)cc1 [MTX, methotrexate, reference compound] | 16 ± 3.2 µM | 13.7 ± 1.29 µM | 15 ± 2.47 µM | – | 42.9 ± 8.07 µM | 2.68 | 2.85 | 3.14
19 | CCc1nccn1-c1ccc(NC(=O)CCC(=O)Nc2ccc(OC)cc2)cc1 [Compound 4i, 1-(4-(3-(4-Methoxybenzecarbamoyl)propionamide)phenyl)-2-ethyl Imidazole] | 23.8 ± 7.16 µM | 15.5 ± 2.84 µM | 7.01 ± 1.3 µM | 160 to 163 °C | 210 ± 25.5 µM | 8.81 | 29.89 | 13.55
20 | CCc1nccn1-c1ccc(NC(=O)CCC(=O)NCc2ccc(F)cc2)cc1 [Compound 4n, 1-(4-(3-(4-F-Benzylcarbamoyl)propionamide)phenyl)-2-ethylimidazole] | > 100 µM | > 100 µM | 9.36 ± 1.78 µM | 137 to 140 °C | – | – | – | –

From paper PMC7570620, “Synthesis and Evaluation of the Antitumor Activity of Novel 1-(4-Substituted phenyl)-2-ethyl Imidazole Apoptosis Inducers In Vitro” (Molecules, 2020)
